US11643395B2, “Derivatives of 4-aminoantipyrine as anti-Alzheimers butyrylcholinesterase inhibitors” (priority 2021, dated 2023)
Entries after “also recorded” stand apart in the source; their conditions may differ. Where a name gives a salt, the structure may show the parent alone.

Legend:
[1] = molecular target: T1, butyrylcholinesterase (BuChE) enzyme (Homo sapiens (Human), UniProt P06276); test: In-vitro butyryl cholinesterase inhibitory activity (DTNB, 96-well); type: biochemical; settings: for IC50: read-out: Butyrylcholinesterase Inhibition Activity IC50 ± SEM; for Butyrylcholinesterase inhibition, rating in words: compared with standard galantamine hydrobromide
T1 sequence (P06276 29-602): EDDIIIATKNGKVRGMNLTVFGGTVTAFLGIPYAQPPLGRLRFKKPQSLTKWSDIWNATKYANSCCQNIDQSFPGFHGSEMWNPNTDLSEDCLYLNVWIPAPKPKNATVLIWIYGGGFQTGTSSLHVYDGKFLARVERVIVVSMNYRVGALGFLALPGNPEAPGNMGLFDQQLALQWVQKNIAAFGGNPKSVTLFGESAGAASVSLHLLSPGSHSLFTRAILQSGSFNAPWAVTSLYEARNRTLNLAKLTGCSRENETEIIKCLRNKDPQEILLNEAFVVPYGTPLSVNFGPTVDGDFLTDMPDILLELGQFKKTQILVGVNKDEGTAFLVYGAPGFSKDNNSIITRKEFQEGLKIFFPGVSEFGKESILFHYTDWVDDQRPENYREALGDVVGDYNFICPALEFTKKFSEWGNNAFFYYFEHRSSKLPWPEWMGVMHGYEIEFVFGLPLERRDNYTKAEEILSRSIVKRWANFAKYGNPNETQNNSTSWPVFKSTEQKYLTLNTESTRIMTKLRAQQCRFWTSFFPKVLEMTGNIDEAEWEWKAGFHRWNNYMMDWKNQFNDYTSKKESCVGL
Protocol: After that 10 μL of pre-prepared butyrylthiocholine chloride (0.5 mM) substrate was added in the dark for 15 minutes, followed by the addition DTNB (0.5 mM), to produce thionitrobenzoate (TNB), whose absorbance range in 412 nm. 5-Thio-2 nitrobenzoate (TNB) (yellow color) anion was produced when thiocholine binds with DTNB which was measured in the form of absorbance in each well. Each compound was evaluated in triplicate at 0.5 mM.
The enzyme inhibitory activity was calculated using the following formula: Percent Inhibition=100−(O.D. of test/O.D. of control)×100
Where test is the enzyme activity with sample, and control is the enzyme activity without sample, and O.D. is optical density.
The IC50 of the compounds was calculated using EZ-Fit Enzyme Kinetic Program (Perrella Scientific Inc., Amhrest, U.S.A.).

[2] = molecular target: T1, butyrylcholinesterase (BuChE) enzyme; test: Kinetic studies of butyrylcholinesterase inhibition (L-B reciprocal plots); type: biochemical; settings: four substrate concentrations (0.05, 0.1, 0.2, 0.4 mM); for Ki: read-out: Butyrylcholinesterase Inhibition Activity Ki ± SEM
Protocol: 0.5 mM concentrations of each inhibitor, as well as control, were examined for their butyrylcholinesterase inhibitory activity using four different substrate concentrations (0.05, 0.1, 0.2, and 0.4 mM).

[3] = butyrylthiocholine chloride substrate, pH 8.0, 25° C.

SMILES | IC50 [1, 3] | Butyrylcholinesterase inhibition, rating in words [1] | Butyrylcholinesterase Inhibition Activity IC50 ± SEM [1, 3] | Type of inhibition of butyrylcholinesterase [2] | Ki [2]
Cc1c(N(Cc2cccc(I)c2)Cc2cccc(I)c2)c(=O)n(-c2ccccc2)n1C [Compound 3, 4-(Bis(3-iodobenzyl)amino)-1,5-dimethyl-2-phenyl-1,2-dihydro-3H-pyrazol-3-one] | 0.4 µM | potent inhibitors |  |  | 
Cc1c(N(Cc2ccccc2I)Cc2ccccc2I)c(=O)n(-c2ccccc2)n1C [Compound 4, 4-(Bis(2-iodobenzyl)amino)-1,5-dimethyl-2-phenyl-1,2-dihydro-3H-pyrazol-3-one] |  | completely inactive | Not Active |  | 
Cc1c(N)c(=O)n(-c2ccccc2)n1C [4-aminoantipyrine, 4-Aminoantipyrine] | 69.7 ± 0.4 µM | moderate inhibitor |  |  | 
Cc1c(N(Cc2ccc(Br)cc2)Cc2ccc(Br)cc2)c(=O)n(-c2ccccc2)n1C [Compound 7, 4-(Bis(4-bromobenzyl)amino)-1,5-dimethyl-2-phenyl-1,2-dihydro-3H-pyrazol-3-one] | 58.7 ± 0.4 µM | moderate inhibitor |  |  | 
Cc1c(N(Cc2ccc(I)cc2)Cc2ccc(I)cc2)c(=O)n(-c2ccccc2)n1C [Compound 5, 4-(Bis(4-iodobenzyl)amino)-1,5-dimethyl-2-phenyl-1,2-dihydro-3H-pyrazol-3-one] | 2.43 µM | potent inhibitors |  | competitive inhibition; also recorded: Competitive Inhibitor | 5.67 µM
Cc1c(N(Cc2ccccc2Br)Cc2ccccc2Br)c(=O)n(-c2ccccc2)n1C [Compound 6, 4-(Bis(2-bromobenzyl)amino)-1,5-dimethyl-2-phenyl-1,2-dihydro-3H-pyrazol-3-one] | 0.7 µM | potent inhibitors |  | non-competitive type of inhibition; also recorded: Non-competitive Inhibitor | 2.4 µM
COc1ccc2c3c1O[C@H]1C[C@@H](O)C=C[C@@]31CCN(C)C2 [galantamine hydrobromide, reference compound] |  |  |  | Mixed type Inhibitor | 
Cc1c(N(Cc2cccc(Br)c2)Cc2cccc(Br)c2)c(=O)n(-c2ccccc2)n1C [Compound 8, 4-(Bis(3-bromobenzyl)amino)-1,5-dimethyl-2-phenyl-1,2-dihydro-3H-pyrazol-3-one] | 0.0262 µM | potent inhibitors |  |  | 
Cc1c(N(Cc2cccc(Cl)c2)Cc2cccc(Cl)c2)c(=O)n(-c2ccccc2)n1C [Compound 1, 4-(Bis(3-chlorobenzyl)amino)-1,5-dimethyl-2-phenyl-1,2-dihydro-3H-pyrazol-3-one] | 0.1 µM | potent inhibitors |  |  | 
Cc1c(N(Cc2ccccc2Cl)Cc2ccccc2Cl)c(=O)n(-c2ccccc2)n1C [Compound 2, 4-(Bis(2-chlorobenzyl)amino)-1,5-dimethyl-2-phenyl-1,2-dihydro-3H-pyrazol-3-one] | 0.5 µM | potent inhibitors |  |  | 
